In patent US9718825B2, “N-(4-(azaindazol-6-yl)-phenyl)-sulfonamides and their use as pharmaceuticals” (priority 2013, dated 2017) one finds IC50 data, which are given here for 27 compounds.

SMILES strings stand for the structures.

Experiment [1] relates to collagen type X (Col10a1) expression in mouse chondrogenic ATDC5 cells. The experiment in a line: Chondrocyte hypertrophic differentiation in mouse chondrogenic ATDC5 cells (collagen type X expression). It counts as cell-based. The note with it: Col10a1 expression by quantitative real-time PCR after two weeks of cell culture; read-out: IC50 values for the inhibition of collagen type X expression in mouse chondrogenic ATDC5 cells. From the text:
D) Determination of the effect on chondrocyte hypertrophic differentiation in mouse chondrogenic ATDC5 cells
The ATDC5 cell assay was used as in vitro model to determine the effects of the compounds of the invention on chondrocyte hypertrophic differentiation by monitoring the expression levels of collagen type X (Col10a1) as specific marker of chondrocyte hypertrophy.
Background: ATDC5 cells are a clonal mouse embryonic cell line derived from multipotent AT805 teratocarcinoma cells (Atsumi, T. et al., A chondrogenic cell line derived from a differentiating culture of AT805 teratocarcinoma cells, Cell Differ. Dev. 1990, 30, 109-116). The cells can undergo insulin-dependent chondrogenic cell differentiation entailing distinct differentiation stages starting from an undifferentiated, subconfluent stage, a condensation stage, a cartilage nodule formation stage and a calcification stage within 45 days of in vitro culture. Chondrogenic differentiation can be shown by measuring the expression of the cartilage main collagen (Col2a1) and aggrecan (AGC1) and glycosaminoglycan-staining with Alcian Blue within two weeks after insulin-triggered differentiation, and hypertrophic differentiation can be monitored by the expression of collagen type X (Col10a1), a specific marker of chondrocyte hypertrophy within 21 days of in vitro culture. (Shukunami, C. et al., Chondrogenic Differentiation of Clonal Mouse Embryonic Cell Lne ATDC5 In Vitro: Differentiation-dependent Gene Expression of Parathyroid Hormone (PTH)/PTH-related Peptide Receptor, J. Cell Biol. 1996, 133, 457-468). Growth factor BMP-2 is known to stimulate cell differentiation and can stimulate early and late-phase ATDC5 differentiation (Shukunami, C. et al., Sequential Progression of the Differentiation Program by Bone Morphogenetic Protein-2 in Chondrogenic Cell Line ATDC5, Exp. Cell Res. 1998, 241, 1-11). Thyroid hormone triiodothyronine (T3) promotes hypertrophic differentiation of growth plate chondrocytes (Robson, H. et al., Thyroid Hormone Acts Directly on Growth Plate Chondrocytes to Promote Hypertrophic Differentiation and Inhibit Clonal Expansion and Cell Proliferation, Endocrinology 2000, 141, 3887-3897). Addition of BMP2 and T3 can accelerate ATDC5 hypertrophic differentiation leading to the strong induction Col10a1 expression between 10-14 days. SGK-inhibitors were added to differentiating ATDC5 cells for 14 days and Col10a1 gene expression was quantified to determine effects on chondrocyte hypertrophic differentiation.
Cell assay description: ATDC5 cells were maintained in 300 cm^2 tissue culture flasks in DMEM/Ham's F12+5% FCS supplemented with 10 μg/ml human transferrin, 30 nM sodium selenite, 50 μg/ml kanamycin and grown at 37° C. in 5% CO2 in 95% air. To initiate cell differentiation, 9.9×10^4 cells were plated in 24 well plates and grown for 2 days. Medium was exchanged with DMEM/Ham's F12+5% FCS supplemented with 10 μg/ml human transferrin, 30 nM sodium selenite, 50 μg/ml ascorbic acid and 1 μg/ml BMP2. The assay was run in triplicates, compounds were added in […], and medium changed every 2-3 days including supplementation of compound. At day 7 after initiation of cell differentiation, 1 μM T3 was used as additional supplement in the cell culture.
After two weeks of cell culture, RNA was isolated and converted to cDNA for determination of gene expression by quantitative real-time PCR. Cells were lysed in 600 μl of RLT-buffer (Qiagen) and total RNA was isolated using the RNA-easy Mini RNA isolation Kit (Qiagen) which was run on a Qiacube system (Qiagen) according to the supplier's instructions. RNA was isolated in 30 μl of pure water and the RNA content measured by UV-spectroscopy (Nanodrop, Peqlab). For cDNA synthesis 50 ng total RNA was reverse transcribed using the High Capacity cDNA Reverse Transcription Kit (Applied Biosystems, Product Number 4368813) according to the manufacturer's instructions. […]

The target of experiment [2] is recombinant human SGK-1 enzyme (Homo sapiens, UniProt O00141). The experiment can be described thus: Enzymatic activity assay: SGK-1 substrate peptide phosphorylation (Caliper lab-chip mobility shift). The note with it: peptide substrate 1 μM, ATP 10 μM, 60 min at 37° C., read-out: IC50 values for inhibition of SGK-1 enzymatic activity. It counts as biochemical.
recombinant human SGK-1 enzyme, sequence (O00141 whole entry, looked up): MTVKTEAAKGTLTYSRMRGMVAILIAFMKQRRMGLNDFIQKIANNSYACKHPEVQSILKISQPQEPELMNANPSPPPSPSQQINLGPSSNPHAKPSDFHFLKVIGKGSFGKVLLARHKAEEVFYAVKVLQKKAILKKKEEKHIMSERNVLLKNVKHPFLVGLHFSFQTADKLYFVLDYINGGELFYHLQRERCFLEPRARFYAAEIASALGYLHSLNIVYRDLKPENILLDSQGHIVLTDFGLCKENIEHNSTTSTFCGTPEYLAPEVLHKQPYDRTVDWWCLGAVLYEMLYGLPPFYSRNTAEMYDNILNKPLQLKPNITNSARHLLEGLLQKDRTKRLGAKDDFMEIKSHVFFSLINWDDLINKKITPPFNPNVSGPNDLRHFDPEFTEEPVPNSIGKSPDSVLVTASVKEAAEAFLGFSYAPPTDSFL
Experiment [3] concerns SGK-1 dependent phosphorylation of GSK3beta in U2OS cells. The experiment in a line: SGK-1 dependent phosphorylation of GSK3beta in U2OS cells overexpressing recombinant SGK-1 and GSK3beta. The note with it: U2OS cells, 6 h incubation, ratio of phosphorylated GSK3beta to total GSK3beta; read-out: IC50 values for inhibition of SGK-1 dependent phosphorylation of GSK3beta in U2OS cells. It counts as cell-based, human.

The IC50 is the concentration that gives 50% inhibition. Regarding `CCN1CCCC(Oc2nc(-c3ccc(NS(=O)(=O)c4cc(Cl)ccc4F)cc3)nc3[nH]nc(C)c23)C1` (centres unmarked) [Example 418], the IC50 in experiment [1] worked out at 30 nM; in experiment [2], 40 nM.

Regarding `CCOc1nc(-c2ccc(NS(=O)(=O)c3cc(Cl)c(F)cc3F)cc2)nc2[nH]nc(N)c12` [Example 451], the IC50 in experiment [1] stood at 10 nM; in experiment [2], 0.57 nM.

Turning to `COCCCN1CCC(Oc2nc(-c3ccc(NS(=O)(=O)c4cc(F)ccc4F)cc3)nc3[nH]nc(C)c23)CC1` [Example 397], the IC50 worked out at 92 nM in experiment [1] and 8.2 nM in experiment [2].

On to `Cc1n[nH]c2nc(-c3ccc(NS(=O)(=O)c4cc(Cl)ccc4Cl)cc3)nc(OCCCO)c12` [Example 378], for which the IC50 amounted to 57 nM in experiment [1] and 5.8 nM in experiment [2].

With `Cc1n[nH]c2nc(-c3ccc(NS(=O)(=O)c4cc(Cl)ccc4F)cc3)nc(OCCCO)c12` [Example 391], the IC50 in experiment [1] was 120 nM; in experiment [2], 9.6 nM.

With `O=S(=O)(Nc1ccc(-c2nc(OC3CCC(O)CC3)c3cn[nH]c3n2)cc1F)c1cc(Cl)ccc1Cl` (centres unmarked) [Example 439], the IC50 in experiment [1] was found to be 44 nM; in experiment [2], 2.5 nM; in experiment [3], 110 nM.

With `Cc1n[nH]c2nc(-c3ccc(NS(=O)(=O)c4cc(Cl)ccc4Cl)cc3)nc(OC3CCN(C(C)C)CC3)c12` [Example 351], the IC50 in experiment [1] was 43 nM; in experiment [2] it was 3.8 nM.

In the case of `Cc1ccc(C#N)c(S(=O)(=O)Nc2ccc(-c3ncc4c(N)n[nH]c4n3)cc2)c1` [Example 453], the IC50 was 550 nM in experiment [1], 1.6 nM in experiment [2] and 2100 nM in experiment [3].

Turning to `O=S(=O)(Nc1ccc(-c2nc(O[C@H]3CC[C@@H](O)CC3)c3cn[nH]c3n2)cc1)c1cc(Cl)ccc1F` [Example 79], the IC50 in experiment [1] is 25 nM.

For `CCOc1nc(-c2ccc(NS(=O)(=O)c3cc(Cl)ccc3Cl)cc2)nc2[nH]nc(C)c12` [Example 426], the IC50 in experiment [1] was 60 nM; in experiment [2], 11 nM.

Regarding `COCCCN1CCC(Oc2nc(-c3ccc(NS(=O)(=O)c4cc(F)ccc4F)cc3)nc3[nH]ncc23)CC1` [Example 394], the IC50 in experiment [1] worked out at 290 nM; in experiment [2] it was 120 nM.

For `Cc1ccc(F)c(S(=O)(=O)Nc2ccc(-c3nc(OC4CCN(C(C)C)CC4)c4c(C)n[nH]c4n3)cc2)c1` [Example 353], the IC50 in experiment [1] came to 21 nM; in experiment [2], 3.8 nM.

`O=S(=O)(Nc1ccc(-c2nc(OC3CCC(O)CC3)c3cn[nH]c3n2)cc1F)c1cc(Cl)ccc1F` (centres unmarked) [Example 440]: the figures for the IC50 in experiment [1], in experiment [2] and in experiment [3] were 81 nM, below 1.5 nM and 240 nM, respectively.

Turning to `COc1ccc(F)c(S(=O)(=O)Nc2ccc(-c3nc(OC4CCN(C(C)C)CC4)c4c(C)n[nH]c4n3)cc2)c1` [Example 357], the IC50 in experiment [1] came to 61 nM; in experiment [2], 3.6 nM.

For the compound `CC(=O)N1CCC(Oc2nc(-c3ccc(NS(=O)(=O)c4cc(Cl)ccc4F)cc3)cc3[nH]nc(C)c23)CC1` [Example 646], the IC50 in experiment [1] worked out at 340 nM; in experiment [2], 11 nM.

With `CCN1CCCC(Oc2nc(-c3ccc(NS(=O)(=O)c4cc(OC)ccc4F)cc3)nc3[nH]nc(C)c23)C1` (centres unmarked) [Example 424], the IC50 was 62 nM in experiment [1] and 13 nM in experiment [2].

As to `Cc1n[nH]c2nc(-c3ccc(NS(=O)(=O)c4cc(Cl)ccc4Cl)cc3)nc(OC3CCCNC3)c12` (centres unmarked) [Example 322], the IC50 in experiment [1] is 8 nM; in experiment [2], 2.6 nM; in experiment [3], 26 nM.

As to `O=S(=O)(Nc1ccc(-c2nc(OCCO)c3cn[nH]c3n2)cc1)c1cc(Cl)ccc1F` [Example 32], the values for the IC50 in experiment [1] and in experiment [2] were 280 nM and 5.1 nM, respectively.

Turning to `Cc1nc(-c2ccc(NS(=O)(=O)c3cc(Cl)ccc3C#N)cc2)nc2[nH]nc(N)c12` [Example 465], the IC50 is 700 nM in experiment [1], below 1.5 nM in experiment [2] and 1200 nM in experiment [3].

As for `Cc1n[nH]c2nc(-c3ccc(NS(=O)(=O)c4cc(F)ccc4F)cc3)nc(OC3CCN(CCF)CC3)c12` [Example 344], the values for the IC50 in experiment [1] and in experiment [2] were 16 nM and 5 nM, respectively.

Turning to `Cc1nc(-c2ccc(NS(=O)(=O)c3cc(Cl)ccc3Cl)cc2)nc2[nH]nc(N3CCC4(CC3)COC4)c12` [Example 496], the values for the IC50 in experiment [1], in experiment [2] and in experiment [3] were 140 nM, 6.2 nM and 7000 nM, respectively.

Regarding `Cc1ccc(C#N)c(S(=O)(=O)Nc2ccc(-c3nc(OC4CCC(O)CC4)c4c(C)n[nH]c4n3)cc2)c1` (centres unmarked) [Example 96], the values for the IC50 in experiment [1], in experiment [2] and in experiment [3] were 33 nM, below 1.5 nM and 740 nM, respectively.

As to `CCN1CCCC(Oc2nc(-c3ccc(NS(=O)(=O)c4cc(Cl)ccc4Cl)cc3)nc3[nH]nc(C)c23)C1` (centres unmarked) [Example 422], the IC50 in experiment [1] was determined as 110 nM; in experiment [2], 40 nM.

As to `CC(C)COc1nc(-c2ccc(NS(=O)(=O)c3cc(F)ccc3F)cc2)nc2[nH]nc(N)c12` [Example 328], the IC50 came to 94 nM in experiment [1], 170 nM in experiment [2] and 150 nM in experiment [3].

For `Cc1n[nH]c2nc(-c3ccc(NS(=O)(=O)c4cc(F)ccc4F)cc3)nc(OC3CCN(C4CCC4)CC3)c12` [Example 398], the IC50 in experiment [1] is 7.2 nM; in experiment [2] it was 25 nM.

`Cc1n[nH]c2nc(-c3ccc(NS(=O)(=O)c4cc(F)ccc4F)cc3)nc(OC3CCCNC3)c12` (centres unmarked) [Example 321]: the IC50 in experiment [1] came to 680 nM; in experiment [2] it was 6.9 nM; in experiment [3] it was 38 nM.

For the compound `Cc1ccc(C#N)c(S(=O)(=O)Nc2ccc(-c3nc(OCCCO)c4c(C)n[nH]c4n3)cc2)c1` [Example 380], the figures for the IC50 in experiment [1] and in experiment [2] were 120 nM and 12 nM, respectively.
